In patent publication US11753411B2, “Substituted pyrazolo[1,5-a]pyrimidines as TYK2 pseudokinase ligands” (Ventyx Biosciences, Inc., priority 2019, dated 2023):

tested on: IFN-a/Jak1 Tyk2; experiment: Co-stimulation assay in lysed whole blood: IFNa (JAK1/TYK2) stimulated STAT1 phosphorylation; format: cell-based; details: Homo sapiens, 20 min, 100 ng/mL IFNa (with 10 ng/mL GM-CSF), pSTAT by flow cytometry
How it was run: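 Lysed human whole blood (RBC-lysed, resuspended in cRPMI) pre-incubated with compound 1 h at 37 °C, then stimulated 20 min with IFNa 100 ng/mL plus GM-CSF 10 ng/mL (final). Fixed, permeabilised, stained for pSTAT1 (PE) and pSTAT5 (AF488); flow cytometry read-out, ≥5,000–10,000 cells acquired.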

**Q.** For `CNc1cc(Nc2cc(F)cc3c2OCCO3)nc2c(NC(=O)N[C@@H]3C[C@@H]3F)cnn12` [Compound 5, 1-(5-((7-fluoro-2,3-dihydrobenzo[b][1,4]dioxin-5-yl)amino)-7-(methylamino)pyrazolo[1,5-a]pyrimidin-3-yl)-3-((1R,2S)-2-fluorocyclopropyl)urea], which IC50 is on record?
**A.** Its IC50 is less than 1000 nM.

**Q.** With `CNc1cc(Nc2cc(F)cc3c2OCCO3)nc2c(NC(=O)NC(C)C#N)cnn12` (stereo not shown) [Compound 120, 1-(1-cyanoethyl)-3-(5-((7-fluoro-2,3-dihydrobenzo[b][1,4]dioxin-5-yl)amino)-7-(methylamino)pyrazolo[1,5-a]pyrimidin-3-yl)urea] as the compound, how does the IC50 read?
**A.** The IC50 was less than 1000 nM.

**Q.** With `C#CCNC(=O)Nc1cnn2c(NC)cc(Nc3cccc4c3OCCO4)nc12` [Compound 101, 1-(5-((2,3-dihydrobenzo[b][1,4]dioxin-5-yl)amino)-7-(methylamino)pyrazolo[1,5-a]pyrimidin-3-yl)-3-(prop-2-yn-1-yl)urea] as the compound, how does the IC50 read?
**A.** Its IC50 is less than 1000 nM.

**Q.** For `CNC(=O)Nc1cnn2c(NC)cc(NC3CCCC3)nc12` [Compound 155, 1-(5-(cyclopentylamino)-7-(methylamino)pyrazolo[1,5-a]pyrimidin-3-yl)-3-methylurea], which IC50 is on record?
**A.** Its IC50 is 1000 to 10000 nM.

**Q.** For `CNc1cc(Nc2cc(C#N)cc3c2OCCO3)nc2c(NC(=O)NC3CC3)cnn12` [Compound 89, 1-(5-((7-cyano-2,3-dihydrobenzo[b][1,4]dioxin-5-yl)amino)-7-(methylamino)pyrazolo[1,5-a]pyrimidin-3-yl)-3-cyclopropylurea], which IC50 is on record?
**A.** The IC50 was less than 1000 nM.

**Q.** Which IC50 does the source give for `CNC(=O)Nc1cnn2c(NC)cc(Nc3ccccc3)nc12` [Compound 146, 1-methyl-3-(7-(methylamino)-5-(phenylamino)pyrazolo[1,5-a]pyrimidin-3-yl)urea] here?
**A.** Its IC50 is 1000 to 10000 nM.

**Q.** For `CNC(=O)Nc1cnn2c(NC)cc(Nc3ccnc4c3OCCO4)nc12` [Compound 92, 1-(5-((2,3-dihydro-[1,4]dioxino[2,3-b]pyridin-8-yl)amino)-7-(methylamino)pyrazolo[1,5-a]pyrimidin-3-yl)-3-methylurea], which IC50 is on record?
**A.** The IC50 was 1000 to 10000 nM.

**Q.** For `CNc1cc(Nc2cc(F)cc3c2OCCO3)nc2c(NC(=O)NCC3(C#N)CC3)cnn12` [Compound 180, 1-((1-cyanocyclopropyl)methyl)-3-(5-((7-fluoro-2,3-dihydrobenzo[b][1,4]dioxin-5-yl)amino)-7-(methylamino)pyrazolo[1,5-a]pyrimidin-3-yl)urea], which IC50 is on record?
**A.** Its IC50 is no less than 10000 nM.

**Q.** With `CNc1cc(Nc2cc(C#N)cc3c2OCCO3)nc2c(NC(=O)NC3CCC3)cnn12` [Compound 106, 1-(5-((7-cyano-2,3-dihydrobenzo[b][1,4]dioxin-5-yl)amino)-7-(methylamino)pyrazolo[1,5-a]pyrimidin-3-yl)-3-cyclobutylurea] as the compound, how does the IC50 read?
**A.** The IC50 was 1000 to 10000 nM.

**Q.** For `CNc1cc(-c2cn(C(C)C)c3ncccc23)nc2c(NC(=O)NC3CC3O)cnn12` (stereo not shown) [Compound 58, 1-(2-hydroxycyclopropyl)-3-(5-(1-isopropyl-1H-pyrrolo[2,3-b]pyridin-3-yl)-7-(methylamino)pyrazolo[1,5-a]pyrimidin-3-yl)urea], which IC50 is on record?
**A.** Its IC50 is no less than 10000 nM.

**Q.** For `CNC(=O)Nc1cnn2c(NC)cc(Nc3cc(C)cc4c3OCCO4)nc12` [Compound 78, 1-methyl-3-(5-((7-methyl-2,3-dihydrobenzo[b][1,4]dioxin-5-yl)amino)-7-(methylamino)pyrazolo[1,5-a]pyrimidin-3-yl)urea], which IC50 is on record?
**A.** The IC50 was less than 1000 nM.

**Q.** For `CNc1cc(Nc2cccc3c2OCCO3)nc2c(NC(=O)N[C@@H]3C[C@@H]3F)c(C)nn12` [Compound 172, 1-(5-((2,3-dihydrobenzo[b][1,4]dioxin-5-yl)amino)-2-methyl-7-(methylamino)pyrazolo[1,5-a]pyrimidin-3-yl)-3-((1R,2S)-2-fluorocyclopropyl)urea], which IC50 is on record?
**A.** The IC50 was no less than 10000 nM.

tested on: not listed separately; experiment: Hepatocyte stability; format: in vitro ADME, human; details: hepatocytes; statement in words
Method: Metabolic stability of compounds can be evaluated using human, rat, mouse, or other animal hepatocytes to predict intrinsic clearance. Human LiverPool™ 20-donor and animal cryopreserved hepatocytes were obtained from BioreclamationIVT.
Cryopreserved hepatocytes were removed from a liquid nitrogen tank and thawed in a 37° C. water bath. As soon as the cells pull away from the vial wall, they were decanted into 48 mL of warm HT medium. Cells were centrifuged for four minutes at 420 rpm (50 g). After removing the supernatant, the pellet was re-suspended in warm DMEM medium. Cell density was counted by a hemacytometer.
The assay was carried out in 96-well microtiter plates. Compound 5 was incubated for 0, 60, 120, and 180 minutes at 37° C. with hepatocytes. Reaction mixtures (50 μL) contain a final concentration of 1 μM test compound, 0.5 million cells/mL hepatocytes in the DMEM medium. At each of the time points (for example, 0, 1, 2, and 3 hours), 200 μL of quench solution (100% acetonitrile with 0.1% formic acid) with internal standard was transferred to each well. Midazolam was included as a positive control to verify assay performance. Plates were sealed and centrifuged at 4° C. for 15 minutes at 4000 rpm. The supernatant was transferred to fresh plates for LC/MS/MS analysis.
All samples were analyzed on LC/MS/MS using an AB Sciex API 4000 instrument, coupled to a Shimadzu LC-20AD LC Pump system. Analytical samples were separated using a Waters Atlantis T3 dC18 reverse phase HPLC column (20 mm×2.1 mm) at a flow rate of […]. The mobile phase consists of 0.1% formic acid in water (solvent A) and 0.1% formic acid in 100% acetonitrile (solvent B).
The extent of metabolism was calculated as the disappearance of the test compound, compared to the 0-min control reaction incubations. Initial rates are calculated for the compound concentration and used to determine t½ values and subsequently, the intrinsic clearance, CLint=(0.693)(1/t½ (min))(mL incubation/million cells).

**Q.** For `CNc1cc(Nc2cc(F)cc3c2OCCO3)nc2c(NC(=O)N[C@@H]3C[C@@H]3F)cnn12` [Compound 5, 1-(5-((7-fluoro-2,3-dihydrobenzo[b][1,4]dioxin-5-yl)amino)-7-(methylamino)pyrazolo[1,5-a]pyrimidin-3-yl)-3-((1R,2S)-2-fluorocyclopropyl)urea], which “metabolic stability compared to the corresponding amide compound” value is on record?
**A.** The value was “unexpected high metabolic stability”.

same assay, conditions: human; Table 3 of Example 15: 1 μM test compound, 0.5 million cells/mL hepatocytes, 37° C.

**Q.** With `CNc1cc(Nc2cc(F)cc3c2OCCO3)nc2c(NC(=O)N[C@@H]3C[C@@H]3F)cnn12` [drawing 293] as the compound, how does the half-life at 1 μM read?
**A.** Its half-life at 1 μM is greater than 6 h.

**Q.** With `CNc1cc(Nc2cc(F)cc3c2OCCO3)nc2c(C(=O)N[C@@H]3C[C@@H]3F)cnn12` [drawing 294, reference compound] as the compound, how does the half-life at 1 μM read?
**A.** Its half-life at 1 μM is less than 1.67 h.

tested on: not listed separately; experiment: Human liver microsome stability assay; format: in vitro ADME; details: 0.5 mg/mL human liver microsomes, 37° C., pH 7.4; urea versus corresponding amide
Method: The microsome stability assay was carried out in 96-well microtiter plates at 37° C. Reaction mixtures (25 μL) contained a final concentration of 1 µM test compound, 0.5 mg/mL human liver microsomes protein, and 1 mM NADPH and/or 1 mM UDPGA (with alamethicin) in 100 mM potassium phosphate, pH 7.4 buffer with 3 mM MgCl2. At each of the time points (for example, 0, 15, 30, and 60 minutes), 150 μL of quench solution (100% acetonitrile with 0.1% formic acid) with internal standard was transferred to each well. Besides the zero minute controls, mixtures containing the same components except the NADPH were also prepared as the negative control. Verapamil was included as a positive control to verify assay performance. Plates were sealed, vortexed, and centrifuged at 4° C. for 15 minutes at 4000 rpm. The supernatant was transferred to fresh plates for LC/MS/MS analysis. Comparison data for microsome stability of urea compounds described herein versus the corresponding amide compounds are shown in Table 1.

**Q.** For `CNC(=O)c1cnn2c(NC)cc(Nc3cc(F)cc4c3OCCO4)nc12` [reference compound], which half-life is on record?
**A.** The half-life was less than 0.833 h.

**Q.** With `CNc1cc(Nc2cc(F)cc3c2OCCO3)nc2c(C(=O)N[C@@H]3C[C@@H]3F)cnn12` [drawing 280, reference compound] as the compound, how does the half-life read?
**A.** Its half-life is 1 h.

**Q.** Which half-life does the source give for `CNc1cc(Nc2cccc3c2OCCO3)nc2c(NC(=O)NC3CC(O)C3)cnn12` (stereo not shown) [drawing 281] here?
**A.** The half-life was greater than 2 h.

**Q.** Which half-life does the source give for `CNc1cc(Nc2cccc3c2OCCO3)nc2c(NC(=O)NC3CC3)cnn12` [drawing 277] here?
**A.** The half-life was greater than 2 h.

**Q.** Which half-life does the source give for `CNc1cc(Nc2cc(F)cc3c2OCCO3)nc2c(NC(=O)N[C@@H]3C[C@@H]3F)cnn12` [drawing 279] here?
**A.** The half-life was greater than 2 h.

**Q.** For `CNc1cc(Nc2cccc3c2OCCO3)nc2c(C(=O)NC3CC(O)C3)cnn12` (stereo not shown) [reference compound], which half-life is on record?
**A.** Its half-life is 0.3 h.

**Q.** For `CNc1cc(Nc2cccc3c2OCCO3)nc2c(C(=O)NC3CC3)cnn12` [drawing 278, reference compound], which half-life is on record?
**A.** The half-life was 0.317 h.

**Q.** Which half-life does the source give for `CNC(=O)Nc1cnn2c(NC)cc(Nc3cc(F)cc4c3OCCO4)nc12` [drawing 283] here?
**A.** The half-life was greater than 2 h.

tested on: not listed separately; experiment: Rat pharmacokinetics (PK); format: in vivo; details: rat plasma; IV group and PO group, route of the Cmax not given; urea versus corresponding amide
Method: Rat PK experiments were performed with an IV group and PO group included, with 3 rats per group. The formulation was solution for IV group and either solution or suspension formulation for the oral group(s). Plasma samples were harvested with K2EDTA as anticoagulant at 0.08, 0.25, 0.5, 1, 2, 4, 8, 12 and 24 hours for the IV group and at 0.25, 0.5, 1, 2, 4, 6, 8, 12 and 24 hours for the PO group, and analyzed by fit for purpose LC-MS/MS method. Non-compartmental analysis module in Phoenix WinNonlin® (Version 8.0) was used to assess the pharmacokinetic parameters. Maximum concentration (Cmax) were taken from the observed values.

**Q.** With `CNc1cc(Nc2cccc3c2OCCO3)nc2c(NC(=O)NC3CCC3)cnn12` [drawing 289] as the compound, how does the Cmax read?
**A.** Its Cmax is 1,800 ng/mL.

**Q.** For `CNc1cc(Nc2cccc3c2OCCO3)nc2c(NC(=O)NC3CCC3)cnn12` [drawing 287], which Cmax is on record?
**A.** Its Cmax is 5,000 ng/mL.

same assay, conditions: rat, plasma, IV group and PO group, route of the Cmax not given, urea versus corresponding amide, read-out: Cmax

**Q.** Which Cmax does the source give for `CNc1cc(Nc2cccc3c2OCCO3)nc2c(C(=O)NC3CCC3)cnn12` [reference compound] here?
**A.** The Cmax was 1900 ng/mL.

**Q.** For `CNc1cc(Nc2cccc3c2OCCO3)nc2c(C(=O)NC3CC3)cnn12` [drawing 290, reference compound], which Cmax is on record?
**A.** Its Cmax is 400 ng/mL.

**Q.** For `CNC(=O)c1cnn2c(NC)cc(Nc3cc(C)cc(C)c3)nc12` [reference compound], which Cmax is on record?
**A.** Its Cmax is 200 ng/mL.

**Q.** Which Cmax does the source give for `CNC(=O)Nc1cnn2c(NC)cc(Nc3cc(C)cc(C)c3)nc12` [drawing 291] here?
**A.** Its Cmax is 915 ng/mL.

**Q.** Which Cmax does the source give for `CNc1cc(Nc2cccc3c2OCCO3)nc2c(NC(=O)N[C@@H]3C[C@@H]3F)cnn12` [drawing 285] here?
**A.** Its Cmax is 1690 ng/mL.

**Q.** Which Cmax does the source give for `CNc1cc(Nc2cccc3c2OCCO3)nc2c(C(=O)N[C@@H]3C[C@@H]3F)cnn12` [reference compound] here?
**A.** The Cmax was 400 ng/mL.
